Data published in patent US11690854B2, “Methods of treating heavy menstrual bleeding” (priority 2018, dated 2023).
Entries after “also recorded” stand apart in the source; their conditions may differ.

Tests used:
[1] = tested on: premenopausal women with endometriosis with associated pain; experiment: Phase 3 Studies EM-I and EM-II together, with extension studies; format: in vivo, human; details: for Depressed Mood, depression, depressive symptoms and or tearfulness, %: placebo 2.3; for Mood altered, mood swings, %: placebo 3.4; for Mean Intensity score (1 = spotting to 4 = heavy) / Mean bleeding/spotting days in prior 28 days: Month 3; for Mean Intensity score (1 = spotting to 4 = heavy): placebo 2.6 to 2.4; for Mean bleeding/spotting days in prior 28 days: placebo 5.4 to 4.6; for Percentage of patients with adverse reaction: Anxiety / Percentage of patients with adverse reaction: Arthralgia / Percentage of patients with adverse reaction: Insomnia: placebo 3; for Percentage of patients with adverse reaction: Nasopharyngitis / Percentage of patients with adverse reaction: Sinusitis: placebo 4; for Percentage of patients with adverse reaction: Upper Respiratory Tract Infection: placebo 5; for Percentage of patients with adverse reaction: Hot Flush: placebo 9; for Percentage of patients with adverse reaction: Headache: placebo 12; for Percentage of patients with adverse reaction: Nausea: placebo 13; for Percentage of patients with adverse reaction: Amenorrhoea: placebo <1; for Mean increase from pretreatment baseline in HDL-C / Mean increase from pretreatment baseline in LDL-C / Mean increase from pretreatment baseline in triglycerides: 6-month treatment; for Patients who discontinued therapy due to adverse reactions: EM-I and EM-II; for Patients with Z-score below the normal lower bound of −2.0: following 12 months of treatment; for Patients with asymptomatic elevations of serum ALT to at least 3-times the upper limit of the reference range: placebo 1/696, 0.1%
Excerpt: Each placebo-controlled study assessed the reduction in endometriosis-associated pain over 6 months of treatment. More than 75 percent of women who completed Study EM-I and EM-II enrolled in the extension studies for an additional 6 month treatment period. Subjects were followed for up to 12 months post-treatment. Women in these studies also provided a daily self-assessment of their endometriosis pain using the Numeric Rating Scale (NRS), on a scale ranging from 0 (no pain) to 10 (worst pain ever). […] The population age range was 18-49 years old. Women who completed six months of treatment and met eligibility criteria continued treatment in two blinded six-month extension studies, for a total treatment duration of up to 12 months. In the placebo-controlled and extension clinical studies, BMD was measured by DXA. Changes observed in BMD at other anatomical sites (femoral neck, total hip) were generally smaller than lumbar spine.

[2] = molecular target: efflux transporter P-glycoprotein (P-gp) (Homo sapiens, UniProt P08183); experiment: Drug interaction potential: P-gp
Protocol: Elagolix is an inhibitor of efflux transporter P-glycoprotein (P-gp) at 200 mg BID or higher, such as 300 mg BID or 400 mg QD or 600 mg QD. Co-administration with ELAGOLIX 200 mg BID may increase plasma concentration of drugs that are substrates of P-gp.
(§1) Elagolix is a substrate of CYP3A, P-gp, and organic anion transporting polypeptide (OATP)1B1. Clinically meaningful interactions are not expected when ELAGOLIX is co-administered with drugs that inhibit CYP3A or P-gp.

[3] = Pharmacokinetic properties of ELAGOLIX in healthy subjects; format: in vivo, human; details: for AUC: plasma; for AUC / Cmax: steady state, mean
rats = experiment: 2-year carcinogenicity study in rats; format: in vivo; details: rat
Excerpt: The rat tumors were identified as being species-specific and of negligible relevance to humans. This conclusion is based on a follow-on thyroid and hepatic effects-related investigative study performed to document the possibility that thyroid and liver tumors may be specific to rat and occurred via induction of hepatic drug metabolizing enzymes at the high dose.

[4] = molecular target: T1, organic anion transporting polypeptide (OATP)1B1 (Homo sapiens, UniProt Q9Y6L6); experiment: Drug interaction potential: OATP1B1
T1 sequence (Q9Y6L6 1-691): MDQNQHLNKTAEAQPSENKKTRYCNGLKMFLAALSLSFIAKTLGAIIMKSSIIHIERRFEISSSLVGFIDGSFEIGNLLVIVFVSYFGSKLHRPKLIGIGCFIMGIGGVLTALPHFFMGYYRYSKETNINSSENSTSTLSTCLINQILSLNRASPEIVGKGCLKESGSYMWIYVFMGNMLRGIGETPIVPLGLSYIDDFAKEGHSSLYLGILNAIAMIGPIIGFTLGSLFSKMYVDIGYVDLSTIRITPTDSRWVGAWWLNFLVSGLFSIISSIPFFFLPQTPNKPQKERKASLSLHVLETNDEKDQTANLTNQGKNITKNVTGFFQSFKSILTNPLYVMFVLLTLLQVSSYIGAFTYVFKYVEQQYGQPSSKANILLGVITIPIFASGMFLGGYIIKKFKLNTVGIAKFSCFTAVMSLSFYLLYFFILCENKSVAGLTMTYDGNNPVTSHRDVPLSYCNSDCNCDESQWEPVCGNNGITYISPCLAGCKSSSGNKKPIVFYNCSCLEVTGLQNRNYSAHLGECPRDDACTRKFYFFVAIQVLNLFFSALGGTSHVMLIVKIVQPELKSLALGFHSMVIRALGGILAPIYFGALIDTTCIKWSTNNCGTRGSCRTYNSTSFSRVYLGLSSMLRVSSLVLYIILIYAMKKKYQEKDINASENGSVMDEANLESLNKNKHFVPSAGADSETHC
Protocol: as §1
Co-administration of ELAGOLIX with drugs that inhibit OATP1B1 may increase elagolix plasma concentrations. Use of potent OATP1B1 inhibitors are not recommended with ELAGOLIX 200 mg BID regimen.

Chain of efflux transporter P-glycoprotein (P-gp) (P08183 whole entry): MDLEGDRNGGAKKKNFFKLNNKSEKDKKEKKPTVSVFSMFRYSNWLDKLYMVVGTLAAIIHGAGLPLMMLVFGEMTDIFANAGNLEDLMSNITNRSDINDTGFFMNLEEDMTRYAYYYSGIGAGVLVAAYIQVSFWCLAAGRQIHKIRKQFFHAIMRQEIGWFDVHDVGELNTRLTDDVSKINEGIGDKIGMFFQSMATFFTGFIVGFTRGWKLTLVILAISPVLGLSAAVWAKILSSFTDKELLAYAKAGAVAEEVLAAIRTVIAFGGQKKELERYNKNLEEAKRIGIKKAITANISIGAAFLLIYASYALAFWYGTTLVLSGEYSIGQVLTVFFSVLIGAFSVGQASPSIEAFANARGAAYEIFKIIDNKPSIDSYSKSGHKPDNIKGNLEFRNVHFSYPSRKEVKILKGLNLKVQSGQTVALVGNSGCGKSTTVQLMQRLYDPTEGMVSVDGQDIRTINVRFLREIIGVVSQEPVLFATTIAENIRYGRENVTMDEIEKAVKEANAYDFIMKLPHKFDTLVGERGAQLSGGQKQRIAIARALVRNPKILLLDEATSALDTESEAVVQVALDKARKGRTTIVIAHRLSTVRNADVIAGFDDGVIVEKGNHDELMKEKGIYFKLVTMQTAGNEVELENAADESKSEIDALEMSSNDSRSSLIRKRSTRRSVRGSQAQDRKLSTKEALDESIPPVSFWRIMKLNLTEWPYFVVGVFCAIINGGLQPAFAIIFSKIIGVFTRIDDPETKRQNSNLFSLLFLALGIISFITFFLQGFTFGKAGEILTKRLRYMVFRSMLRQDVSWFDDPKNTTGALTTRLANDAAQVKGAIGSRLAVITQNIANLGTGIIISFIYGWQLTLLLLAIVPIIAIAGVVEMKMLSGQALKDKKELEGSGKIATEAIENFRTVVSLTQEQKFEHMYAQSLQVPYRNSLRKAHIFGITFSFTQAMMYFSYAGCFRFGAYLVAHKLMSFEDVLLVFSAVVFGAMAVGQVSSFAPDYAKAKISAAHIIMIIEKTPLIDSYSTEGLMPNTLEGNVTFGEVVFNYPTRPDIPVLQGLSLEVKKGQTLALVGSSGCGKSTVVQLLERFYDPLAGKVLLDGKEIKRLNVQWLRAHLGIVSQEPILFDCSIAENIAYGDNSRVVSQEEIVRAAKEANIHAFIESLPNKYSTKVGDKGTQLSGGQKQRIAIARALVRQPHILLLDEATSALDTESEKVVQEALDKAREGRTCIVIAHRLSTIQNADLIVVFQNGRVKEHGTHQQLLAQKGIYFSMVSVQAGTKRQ

**Q.** What does the source list for COc1cccc(-c2c(C)n(Cc3c(F)cccc3C(F)(F)F)c(=O)n(C[C@H](NCCCC(=O)O)c3ccccc3)c2=O)c1F [Elagolix, 4-((R)-2-[5-(2-fluoro-3-methoxy-phenyl)-3-(2-fluoro-6-trifluoromethyl-benzyl)-4-methyl-2,6-dioxo-3,6-dihydro-2H-pyrimidin-1-yl]-1-phenyl-ethylamino)-butyric acid]?
**A.** Completed Suicide, % ([1]; 150 mg Once Daily (N = 475)): (0.2) %; Suicidal ideation, % ([1]; 150 mg Once Daily (N = 475)): (0.2) %; Depressed Mood, depression, depressive symptoms and or tearfulness, % ([1]; 150 mg Once Daily (N = 475)): (2.7) %; Mood altered, mood swings, % ([1]; 150 mg Once Daily (N = 475)): (5.7) %; Mean Intensity score (1 = spotting to 4 = heavy) ([1]; 150 mg Once Daily, baseline 2.6): 2.2; Mean bleeding/spotting days in prior 28 days ([1]; 150 mg Once Daily, baseline 5.3): 2.8 days; Discontinuations due to hot flush ([1]; 150 mg QD): 0.8%; Discontinuations due to nausea ([1]; 150 mg QD): 0.8%; Numeric Rating Scale (NRS) endometriosis pain scores ([1]; 150 mg QD and 200 mg BID, Month 3 and Month 6): highly statistically (p<0.001) significant reduction in NRS scores compared to placebo; Percentage of patients with adverse reaction: Anxiety ([1]; 150 mg QD, N = 475): 3%; Percentage of patients with adverse reaction: Arthralgia ([1]; 150 mg QD, N = 475): 3%; Percentage of patients with adverse reaction: Insomnia ([1]; 150 mg QD, N = 475): 6%; Percentage of patients with adverse reaction: Nasopharyngitis ([1]; 150 mg QD, N = 475): 6%; Percentage of patients with adverse reaction: Sinusitis ([1]; 150 mg QD, N = 475): 5%; Percentage of patients with adverse reaction: Upper Respiratory Tract Infection ([1]; 150 mg QD, N = 475): 6%; Percentage of patients with adverse reaction: Hot Flush ([1]; 150 mg QD, N = 475): 23%; Percentage of patients with adverse reaction: Headache ([1]; 150 mg QD, N = 475): 17%; Percentage of patients with adverse reaction: Nausea ([1]; 150 mg QD, N = 475): 11%; Percentage of patients with adverse reaction: Amenorrhoea ([1]; 150 mg QD, N = 475): 4%; Mean increase from pretreatment baseline in HDL-C ([1]; 150 mg QD): 2.24 mg/dL; Mean increase from pretreatment baseline in LDL-C ([1]; 150 mg QD): 5.25 mg/dL; Mean increase from pretreatment baseline in triglycerides ([1]; 150 mg QD): 0.42 mg/dL; Patients who discontinued therapy due to adverse reactions ([1]; 150 mg QD): 5.5%; % Subjects with lumbar spine Z-score ≤−1.5 ([1]; 150 mg QD, on treatment Month 6, N 360): 0.8%; Mean Percent Change from baseline in lumbar spine bone mineral density ([1]; 150 mg QD, on treatment Month 6, N 360, 95% CI −0.79, −0.26): −0.52%; % Subjects with lumbar spine Z-score ≤−1.5 ([1]; 150 mg QD, on treatment Month 12, N 235): 1.3%; Mean Percent Change from baseline in lumbar spine bone mineral density ([1]; 150 mg QD, on treatment Month 12, N 235, 95% CI −1.29, −0.45): −0.87%; Estradiol level (suppression to) ([1]; 150 mg QD, partial suppression): approximately 50 pg/mL; Patients with Z-score below the normal lower bound of −2.0 ([1]; 150 mg daily dose): no patient; Patients with asymptomatic elevations of serum ALT to at least 3-times the upper limit of the reference range ([1]; 150 mg once daily, 1/450): 0.2%; Incidence of amenorrhea (no bleeding or spotting in a 56-day interval) ([1]; 150 mg once daily, first six months of treatment, placebo less than 1%): 6-17%; Incidence of amenorrhea (no bleeding or spotting in a 56-day interval) ([1]; 150 mg once daily, second 6 months of treatment): 11-15%; Discontinuations due to hot flush ([1]; 200 mg BID): 2.5%; Discontinuations due to nausea ([1]; 200 mg BID): 1.5%; Percentage of patients with adverse reaction: Anxiety ([1]; 200 mg BID, N = 477): 5%; Percentage of patients with adverse reaction: Arthralgia ([1]; 200 mg BID, N = 477): 5%; Percentage of patients with adverse reaction: Insomnia ([1]; 200 mg BID, N = 477): 9%; Percentage of patients with adverse reaction: Nasopharyngitis ([1]; 200 mg BID, N = 477): 6%; Percentage of patients with adverse reaction: Sinusitis ([1]; 200 mg BID, N = 477): 6%; Percentage of patients with adverse reaction: Upper Respiratory Tract Infection ([1]; 200 mg BID, N = 477): 4%; Percentage of patients with adverse reaction: Hot Flush ([1]; 200 mg BID, N = 477): 45%; Percentage of patients with adverse reaction: Headache ([1]; 200 mg BID, N = 477): 20%; Percentage of patients with adverse reaction: Nausea ([1]; 200 mg BID, N = 477): 16%; Percentage of patients with adverse reaction: Amenorrhoea ([1]; 200 mg BID, N = 477): 7%; Mean increase from pretreatment baseline in HDL-C ([1]; 200 mg BID): 4.16 mg/dL; Mean increase from pretreatment baseline in LDL-C ([1]; 200 mg BID): 13.10 mg/dL; Mean increase from pretreatment baseline in triglycerides ([1]; 200 mg BID): 11.08 mg/dL; Patients who discontinued therapy due to adverse reactions ([1]; 200 mg BID): 9.6%; Percent change from baseline of averaged daily opioid pills (FIG. A-5) ([1]; 200 mg BID, compared with placebo): significant decrease from baseline in the percent change of averaged daily opioid pills at Months 3 through 6; Patients with Z-score below the normal lower bound of −2.0 ([1]; 200 mg BID): less than 1%; Estradiol level (suppression to) ([1]; 200 mg BID, nearly full suppression): approximately 12 pg/mL; % Subjects with lumbar spine Z-score ≤−1.5 ([1]; 200 mg BID, on treatment Month 6, N 365): 4.1%; Mean Percent Change from baseline in lumbar spine bone mineral density ([1]; 200 mg BID, on treatment Month 6, N 365, 95% CI −2.81, −2.28): −2.54%; % Subjects with lumbar spine Z-score ≤−1.5 ([1]; 200 mg BID, on treatment Month 12, N 217): 5.1%; Mean Percent Change from baseline in lumbar spine bone mineral density ([1]; 200 mg BID, on treatment Month 12, N 217, 95% CI −4.19, −3.32): −3.76%; Suicidal ideation, % ([1]; 200 mg Twice Daily (N = 477)): (0.2) %; Depressed Mood, depression, depressive symptoms and or tearfulness, % ([1]; 200 mg Twice Daily (N = 477)): (6.1) %; Mood altered, mood swings, % ([1]; 200 mg Twice Daily (N = 477)): (5.2) %; Mean Intensity score (1 = spotting to 4 = heavy) ([1]; 200 mg Twice Daily, baseline 2.5): 2.0; Mean bleeding/spotting days in prior 28 days ([1]; 200 mg Twice Daily, baseline 5.7): 0.8 days; Patients with asymptomatic elevations of serum ALT to at least 3-times the upper limit of the reference range ([1]; 200 mg twice daily, 5/443): 1.1%; Incidence of amenorrhea (no bleeding or spotting in a 56-day interval) ([1]; 200 mg twice daily, first six months of treatment, placebo less than 1%): 13-52%; Incidence of amenorrhea (no bleeding or spotting in a 56-day interval) ([1]; 200 mg twice daily, second 6 months of treatment): 46-57%; Percentage of days in which rescue opioid medication was taken ([1]; 150 QD and 200 BID, pooled analysis, compared with placebo): significant reduction in the percentage of days in which rescue opioid medication was taken; Mean decreases from Baseline in dysmenorrhea scores ([1]; both treatment groups (150 mg QD, 200 mg BID)): statistically significantly greater than placebo beginning at Month 1 and persisted through Month 6; BMD after stopping treatment ([1]; both treatment groups, lumbar spine, total hip and femoral neck, post-treatment months 6 and 12): progressive recovery of BMD; Durability of improvement in extension studies EM-III and EM-IV ([1]; patients maintained on their dose): durability of improvement in dysmenorrhea, NMPP and dyspareunia was demonstrated for a total of 12 months; Substrate of P-gp [2]: substrate; Inhibition of P-gp ([2]; at 200 mg BID or higher, such as 300 mg BID or 400 mg QD or 600 mg QD): inhibitor; Tmax ([3]; healthy subjects): 1.0 h; blood plasma ratio ([3]; human, blood and plasma): 0.6; Major route of elimination ([3]; human, in vivo): Hepatic metabolism; Metabolism, minor pathways ([3]; human, in vivo): glucuronosyltransferases (UGTs); half-life ([3]; human, in vivo, oral, healthy subjects, read-out: Terminal phase elimination half-life (t½)): 240 to 360 min; Metabolism, minor pathways ([3]; human, in vivo, listed as ELAGOLIX): Minor pathways include: CYP2D6,; also recorded: CYP2C8, and uridine; AUC ([3]; human, oral, 150 mg QD, τ 24 hours, % CV 31): 1290 ng·h/mL; AUC ([3]; human, oral, 200 mg BID, τ 12 hours, % CV 57): 1720 ng·h/mL; Metabolism ([3]; major pathway): CYP3A (major); Cmax ([3]; 150 mg QD, % CV 29): 574 ng/mL; Cmax ([3]; 200 mg BID, % CV 68): 774 ng/mL; Margin of safety at the high dose with respect to 200 mg BID in women (rats; both, in vivo, 2 years): 13 fold; Tumors in 2-year carcinogenicity study (rats; high dose, identified as species-specific): increase in thyroid (male and female) and liver (males only) tumors; Substrate of OATP1B1 [4]: substrate
